Assay results published in the supplement of paper PMC7017272.
± gives the standard deviation of the averaged measurements.

Assays:
UT-SCC-24A = experiment: maximal % inhibition of viability relative to DMSO; higher = stronger effect; conditions: treatment time: 3 days
Experimental: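 HNSCC cell lines (500 cells/well, 384-well) were cultured on plastic, on top of (2D) or embedded (3D) in Matrigel or human leiomyoma matrix Myogel (500 ug/mL; Myogel 3D mixed with rat collagen I). Cells were treated for 3 days with 5 ten-fold concentrations of each drug, and viability was read by CellTiter-Glo. Viability was normalised to DMSO (0% inhibition) and 100 uM benzethonium chloride (100% inhibition) controls and fitted with the FIMM DSRT pipeline to give IC50 (nM), maximal % inhibition and the drug sensitivity score (DSS). Suffixes _1/_2/_3 on drug names are replicates.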

UT-SCC-24B [1] = experiment: drug sensitivity score (DSS); higher = more sensitive; extreme values may be limits of the assay; conditions: treatment time: 3 days
Summary of the method: (§1)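 Viability of HPV-negative HNSCC cell lines was measured by CellTiter-Glo 2.0 luminescence. Cells were seeded at 500 cells/well in 384-well plates on plastic, on Matrigel- or Myogel-coated wells (500 µg/mL), or embedded in Matrigel or Myogel plus rat collagen I, then given compounds at five 10-fold concentrations for 3 days, with signals normalised to vehicle (0.1% DMSO) and cell-killing control wells. Fitting of percent-inhibition dose–response curves in the FIMM pipeline yielded IC50, maximal inhibition and drug sensitivity score.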

UT-SCC-28 [2] = experiment: as above; conditions: treatment time: 3 days
Summary of the method: as §1

UT-SCC-40 [3] = experiment: as above; conditions: treatment time: 3 days
Summary of the method: as §1

UT-SCC-44 [4] = experiment: as above; conditions: treatment time: 3 days
Summary of the method: as §1

UT-SCC-73 [5] = experiment: as above; conditions: treatment time: 3 days
Summary of the method: as §1

UT-SCC-81 [6] = experiment: as above; conditions: treatment time: 3 days
Summary of the method: as §1

UT-SCC-8 [7] = experiment: as above; conditions: treatment time: 3 days
Summary of the method: as §1

UT-SCC-106A = experiment: relative IC50 (midpoint of the fitted curve; maximal inhibition may be below 50%); higher = less potent; conditions: treatment time: 3 days
Summary of the method: as §1

UT-SCC-14 = experiment: as above; conditions: treatment time: 3 days
Summary of the method: as §1

UT-SCC-24B [8] = experiment: as above; conditions: culture condition: embedded in Myogel + collagen I; treatment time: 3 days
Summary of the method: as §1

UT-SCC-28 [9] = experiment: as above; conditions: culture condition: embedded in Myogel + collagen I; treatment time: 3 days
Summary of the method: as §1

UT-SCC-40 [10] = experiment: as above; conditions: treatment time: 3 days
Summary of the method: as §1

UT-SCC-42A = experiment: as above; conditions: treatment time: 3 days
Summary of the method: as §1

UT-SCC-42B = experiment: as above; conditions: culture condition: on top of Myogel; treatment time: 3 days
Summary of the method: as §1

UT-SCC-44 [11] = experiment: as above; conditions: treatment time: 3 days
Summary of the method: as §1

UT-SCC-73 [12] = experiment: as above; conditions: treatment time: 3 days
Summary of the method: as §1

UT-SCC-81 [13] = experiment: as above; conditions: treatment time: 3 days
Summary of the method: as §1

UT-SCC-8 [14] = experiment: as above; conditions: culture condition: embedded in Myogel + collagen I; treatment time: 3 days
Summary of the method: as §1

[15] = culture condition: embedded in Matrigel
[16] = culture condition: embedded in Myogel + collagen I
[17] = culture condition: on top of Matrigel
[18] = culture condition: on top of Myogel
[19] = culture condition: plastic 2D (no matrix)

- relative IC50 (UT-SCC-106A; [15]): 6.54 nM
- relative IC50 (UT-SCC-106A; [18]): 8.68 nM
- relative IC50 (UT-SCC-14; [15]): 0.761 nM
- relative IC50 (UT-SCC-14; [16]): 0.711 nM
- relative IC50 (UT-SCC-14; [18]): 0.632 nM
- relative IC50 (UT-SCC-14; [19]): 0.876 nM
- relative IC50 (UT-SCC-24B [8]): 1.48 nM
- relative IC50 (UT-SCC-28 [9]): 4.01 nM
- relative IC50 (UT-SCC-40 [10]; [15]): 2.37 nM
- relative IC50 (UT-SCC-40 [10]; [18]): 1.94 nM
- relative IC50 (UT-SCC-40 [10]; [19]): 1.94 nM
- relative IC50 (UT-SCC-42A; [15]): 6.44 nM
- relative IC50 (UT-SCC-42A; [16]): 6.31 nM
- relative IC50 (UT-SCC-42A; [17]): 1.65 nM
- relative IC50 (UT-SCC-42A; [19]): 4.54 nM
- relative IC50 (UT-SCC-42B): 17.4 nM
- relative IC50 (UT-SCC-44 [11]; [15]): 0.909 nM
- relative IC50 (UT-SCC-44 [11]; [16]): 4.16 nM
- relative IC50 (UT-SCC-44 [11]; [18]): 0.271 nM
- relative IC50 (UT-SCC-73 [12]; [17]): 0.734 nM
- relative IC50 (UT-SCC-73 [12]; [18]): 1.48 nM
- relative IC50 (UT-SCC-73 [12]; [19]): 3 nM
- relative IC50 (UT-SCC-81 [13]; [16]): 2.46 nM
- relative IC50 (UT-SCC-81 [13]; [17]): 1.38 nM
- relative IC50 (UT-SCC-8 [14]): 6.75 nM
SMILES: CO[C@H]1C[C@@H]2CC[C@@H](C)[C@@](O)(O2)C(=O)C(=O)N2CCCC[C@H]2C(=O)O[C@H]([C@H](C)C[C@@H]2CC[C@@H](OP(C)(C)=O)[C@H](OC)C2)CC(=O)[C@H](C)/C=C(\C)[C@@H](O)[C@@H](OC)C(=O)[C@H](C)C[C@H](C)/C=C/C=C/C=C/1C [Ridaforolimus]
- maximal % inhibition of viability (UT-SCC-24A; [15]): 56.1 ± 36%
- maximal % inhibition of viability (UT-SCC-24A; [16]): 35.7 ± 4%
- maximal % inhibition of viability (UT-SCC-24A; [17]): 29.4 ± 3.8%
- maximal % inhibition of viability (UT-SCC-24A; [18]): 32.7 ± 3.6%
- maximal % inhibition of viability (UT-SCC-24A; [19]): 33 ± 5.9%
- drug sensitivity score (UT-SCC-24B [1]; [15]): 2.9 ± 2.8 DSS
- drug sensitivity score (UT-SCC-24B [1]; [16]): 7.87 ± 0.8 DSS
- drug sensitivity score (UT-SCC-24B [1]; [17]): 3.8 ± 0.66 DSS
- drug sensitivity score (UT-SCC-24B [1]; [18]): 4.63 ± 1.4 DSS
- drug sensitivity score (UT-SCC-24B [1]; [19]): 5.37 ± 2 DSS
- drug sensitivity score (UT-SCC-28 [2]; [15]): 4.87 ± 2.8 DSS
- drug sensitivity score (UT-SCC-28 [2]; [16]): 4.37 ± 4 DSS
- drug sensitivity score (UT-SCC-28 [2]; [17]): 6.87 ± 2.6 DSS
- drug sensitivity score (UT-SCC-28 [2]; [19]): 6.37 ± 3.5 DSS
- drug sensitivity score (UT-SCC-40 [3]; [15]): 4.97 ± 2.8 DSS
- drug sensitivity score (UT-SCC-40 [3]; [16]): 7.83 ± 3.9 DSS
- drug sensitivity score (UT-SCC-40 [3]; [17]): 4.8 ± 0.78 DSS
- drug sensitivity score (UT-SCC-40 [3]; [18]): 4.23 ± 0.46 DSS
- drug sensitivity score (UT-SCC-40 [3]; [19]): 3.77 ± 0.47 DSS
- drug sensitivity score (UT-SCC-44 [4]; [15]): 6.7 ± 3.6 DSS
- drug sensitivity score (UT-SCC-44 [4]; [16]): 6.23 ± 0.99 DSS
- drug sensitivity score (UT-SCC-44 [4]; [17]): 10.7 ± 2.2 DSS
- drug sensitivity score (UT-SCC-44 [4]; [18]): 11.2 ± 1.4 DSS
- drug sensitivity score (UT-SCC-44 [4]; [19]): 9.63 ± 3 DSS
- drug sensitivity score (UT-SCC-73 [5]; [15]): 7.23 ± 3 DSS
- drug sensitivity score (UT-SCC-73 [5]; [16]): 8.57 ± 6 DSS
- drug sensitivity score (UT-SCC-73 [5]; [17]): 6.9 ± 1.3 DSS
- drug sensitivity score (UT-SCC-73 [5]; [18]): 8 ± 0.79 DSS
- drug sensitivity score (UT-SCC-73 [5]; [19]): 4.93 ± 0.94 DSS
- drug sensitivity score (UT-SCC-81 [6]; [15]): 8.6 ± 4.5 DSS
- drug sensitivity score (UT-SCC-81 [6]; [16]): 11.8 ± 3.1 DSS
- drug sensitivity score (UT-SCC-81 [6]; [17]): 9.37 ± 2.3 DSS
- drug sensitivity score (UT-SCC-81 [6]; [18]): 10.9 ± 4 DSS
- drug sensitivity score (UT-SCC-81 [6]; [19]): 8.77 ± 5 DSS
- drug sensitivity score (UT-SCC-8 [7]; [15]): 9.67 ± 4 DSS
- drug sensitivity score (UT-SCC-8 [7]; [16]): 4.03 ± 1 DSS
- drug sensitivity score (UT-SCC-8 [7]; [17]): 9.27 ± 3.7 DSS
- drug sensitivity score (UT-SCC-8 [7]; [18]): 12.5 ± 4.2 DSS
- drug sensitivity score (UT-SCC-8 [7]; [19]): 10.2 ± 3.6 DSS
